Measured values from patent US20140178898A1, “Method for Detecting Fat-Reducing Compounds” (National Central University, priority 2012, published 2014).

What was measured:
Format in all cases: cell-based
[1] = tested on: glucose transporter 1 (GLUT1); experiment: Western blotting of GLUT1 protein in adipocyte fractions; conditions: EGCG in the presence and absence of IGF-I and IGF-II (FIGS. 5A, 6A)
Procedure: (§1) In the first step (S1), which provides a clone of adipocytes to be cultured on a culture dish, the adipocytes are 3T3-L1 adipocytes (American Type Culture Collection, Manassas, Va.). 3T3-L1 adipocytes are differentiated from 3T3-L1 preadipocytes. To obtain the adipocytes, preadipocytes are seeded at a number of 6×10^4 cells per well on a sterile 12-well plate. After 3 and 5 days of the plating, the medium is changed and replaced with a new medium containing a differentiation agent, respectively. Day 0 of differentiating cells is set at the day when the differentiating agent is added in the beginning. The medium is the Dulbecco's Modified Eagle's Medium (DMEM) containing 10% fetal bovine serum (FBS), 100 U/ml of penicillin, and 100 μg/ml streptomycin. […]
In the fourth step (S4), which collects the adipocytes for a detection of the expression level of at least one specific protein to be a reference value (i.e. an indicator) for reducing fat or for decreasing the glucose transport by the test compound, the specific proteins are glucose transporter 1 (GLUT1) and glucose transporter 4 (GLUT4) proteins (FIGS. 5 and 6). Levels of GLUT1 and GLUT4 protein expression in the total lysate, plasma membrane, and low-density microsome are analyzed by Western blotting. […]

3T3-L1 adipocytes [2] = experiment: 2-deoxyglucose (2-DOG) uptake assay, IGF-II-stimulated glucose uptake
Procedure: as §1, with “beginning.” for “beginning. The medium is the Dulbecco's Modified Eagle's Medium (DMEM) containing 10% fetal bovine serum (FBS), 100 U/ml of penicillin, and 100 μg/ml streptomycin.”
The first example of the present invention is to show a use of 2-deoxyglucose uptake assay for detecting the transportation activity of glucose transporter protein in the adipocytes (FIG. 2). […] Then, 500 μl of RadioImmunoPrecipitation Assay (RIPA) buffer is added for fracturing the cells; 450 μl of cell solution is collected to evenly mix with 4 ml of scintillation liquid in a vial for a detection of radioactivity through a β-counter.
(§2) This invention provides a second example for clarifying the time course effects of EGCG on the IGF-stimulated glucose uptake in adipocytes (FIG. 3). […] After the incubation, the radioactivity is measured to indicate the transportation activity of glucose transporter protein in the adipocytes. […]

3T3-L1 adipocytes [3] = experiment: 2-deoxyglucose (2-DOG) uptake assay, EGCG alone
Procedure: (§3) In the first step (S1), which provides a clone of adipocytes to be cultured on a culture dish, the adipocytes are 3T3-L1 adipocytes (American Type Culture Collection, Manassas, Va.). 3T3-L1 adipocytes are differentiated from 3T3-L1 preadipocytes. To obtain the adipocytes, preadipocytes are seeded at a number of 6×10^4 cells per well on a sterile 12-well plate. After 3 and 5 days of the plating, the medium is changed and replaced with a new medium containing a differentiation agent, respectively. Day 0 of differentiating cells is set at the day when the differentiating agent is added in the beginning. The medium is the Dulbecco's Modified Eagle's Medium (DMEM) containing 10% fetal bovine serum (FBS), 100 U/ml of penicillin, and 100 μg/ml streptomycin. The differentiation agent is a cocktail solution containing a final concentration of 0.5 mM 3-Isobutyl-1-methylxanthine (IBMX), 5 μg/ml insulin, and 1 μM dexamethasone (DEX). After the 2-day incubation of the differentiation agent, the medium is changed to DMEM containing 10% FBS and 5 μg/ml insulin for an additional 4 days, and it is replaced with a new medium every 2 days. Day 6 differentiating cells are grown in DMEM containing 10% FBS for an additional 4 days. The medium is changed every 2 days. A total of 10 days is used for the process of differentiation to obtain the differentiated adipocytes and the cells are used for later experiments.
(§4) The first example of the present invention is to show a use of 2-deoxyglucose uptake assay for detecting the transportation activity of glucose transporter protein in the adipocytes (FIG. 2). This purpose is also to clarify the effect of different concentrations of EGCG on the IGF-I-induced and IGF-II-induced glucose uptake. At the first, the different concentrations of EGCG are added into the adipocytes, such as 1, 2, 5, 10, 20 and 50 μM. The duration of the EGCG pretreatment is defined as a first time and it is 120 minutes, wherein the first time period can range from 30 to 120 minutes, but it is not limited thereto. Then, the exposed time of 10 minutes to 10 nM IGF-I or 10 nM IGF-II is defined as a second time, wherein the second time can be 5 minutes shorter or last for 30 minutes, but it is not limited thereto. […] Then, 500 μl of RadioImmunoPrecipitation Assay (RIPA) buffer is added for fracturing the cells; 450 μl of cell solution is collected to evenly mix with 4 ml of scintillation liquid in a vial for a detection of radioactivity through a β-counter.
This invention provides a second example for clarifying the time course effects of EGCG on the IGF-stimulated glucose uptake in adipocytes (FIG. 3). […] After the incubation, the radioactivity is measured to indicate the transportation activity of glucose transporter protein in the adipocytes.

3T3-L1 adipocytes [4] = experiment: 2-deoxyglucose (2-DOG) uptake assay, IGF-I-stimulated glucose uptake; conditions: for IGF-I-stimulated increases in levels of adipocyte glucose uptake: then 10 nM IGF-I 10 minutes (FIG. 2A)
Procedure: as §3, §4, §2

[5] = tested on: glucose transporter 4 (GLUT4); experiment: Western blotting of GLUT4 protein in adipocyte fractions (translocation); conditions: for GLUT4 protein levels in the plasma membrane of adipocytes: IGF at 10 nM (FIGS. 5B, 6B); for GLUT4 expression levels in the low-density microsome: IGF at 10 nM (FIGS. 5C, 6C)
Procedure: as §3
In the fourth step (S4), which collects the adipocytes for a detection of the expression level of at least one specific protein to be a reference value (i.e. an indicator) for reducing fat or for decreasing the glucose transport by the test compound, the specific proteins are glucose transporter 1 (GLUT1) and glucose transporter 4 (GLUT4) proteins (FIGS. 5 and 6). Levels of GLUT1 and GLUT4 protein expression in the total lysate, plasma membrane, and low-density microsome are analyzed by Western blotting. FIGS. 5A, 5B and 5C are presented when the culture medium is added with or without IGF-I; whereas, in FIGS. 6A, 6B and 6C, IGF-II is added to the culture medium.

Substance: (−)-epigallocatechin gallate [EGCG]
- levels of GLUT1 protein in the total lysate of the adipocytes [1]: not altered
- increase in the level of adipocyte glucose uptake induced by IGF-II (3T3-L1 adipocytes [2]; 0.5, 1, 2, and 4 hours after 20 μM EGCG pretreatment, 10 nM IGF-II): significantly reduced
- IGF-II-increased levels of glucose uptake in adipocytes (3T3-L1 adipocytes [2]; EGCG at 10, 20, and 50 μM, 2-hour pretreatment, 10 nM IGF-II (FIG. 2B)): suppress
- level of adipocyte glucose uptake (3T3-L1 adipocytes [3]; 20 μM EGCG alone, 0.5, 1, or 2 hours (FIG. 3A)): not
- level of adipocyte glucose uptake (3T3-L1 adipocytes [3]; 20 μM EGCG alone, 4 hours (FIG. 3A)): significantly altered
- adipocyte glucose uptake (3T3-L1 adipocytes [3]; EGCG alone at 50 μM, 2 hours (FIG. 2A)): significantly decreased
- glucose uptake in the adipocytes (3T3-L1 adipocytes [3]; EGCG alone at 1, 2, 5, 10, and 20 μM, 2 hours of treatment (FIG. 2A)): does not alter
- IGF-I-increased levels of adipocyte glucose uptake (3T3-L1 adipocytes [4]; 20 μM EGCG pretreatment for 0.5 hours, suppressive effect lasts for 4 hours, 10 nM IGF-I): inhibits
- IGF-I-increased level of adipocyte glucose uptake (3T3-L1 adipocytes [4]; 20 μM EGCG, 2-hour treatment, 10 nM IGF-I): decline to the corresponding level of glucose uptake to the control
- IGF-I-stimulated increases in levels of adipocyte glucose uptake (3T3-L1 adipocytes [4]; 2-hour pretreatment with 1, 2, or 5 μM EGCG): not
- IGF-I-stimulated increases in levels of adipocyte glucose uptake (3T3-L1 adipocytes [4]; 2-hour pretreatment with 10, 20, and 50 μM EGCG): suppresses
- levels of GLUT4 protein in the total lysate of the adipocytes ([5]; EGCG in the presence and absence of IGF-I and IGF-II (FIGS. 5A, 6A)): not altered
- IGF-increased levels of GLUT-4 protein in the plasma membrane ([5]; EGCG in the presence of IGF-I (FIG. 5B)): inhibits
- IGF-decreased levels of GLUT-4 protein in the low-density microsome ([5]; EGCG in the presence of IGF-I (FIG. 5C)): blocked
- IGF-increased levels of GLUT-4 protein in the plasma membrane ([5]; EGCG in the presence of IGF-II (FIG. 6B)): inhibits
- IGF-decreased levels of GLUT-4 protein in the low-density microsome ([5]; EGCG in the presence of IGF-II (FIG. 6C)): blocked
- translocation of GLUT4 from the cytosol to plasma membrane of the adipocytes induced by IGF treatment ([5]; FIGS. 5B, 5C, 6B and 6C): inhibited
- GLUT-4 protein levels in the low-density microsome ([5]; pretreatment with EGCG alone): does not change
- GLUT-4 protein levels in the plasma membrane ([5]; pretreatment with EGCG alone): does not change

Substance: IGF-I: insulin-like growth factor I, added to adipocytes at 10 nM
- GLUT4 protein levels in the plasma membrane of adipocytes [5]: significantly increase
- GLUT4 expression levels in the low-density microsome [5]: decrease

Substance: IGF-II: insulin-like growth factor II, added to adipocytes at 10 nM
- GLUT4 protein levels in the plasma membrane of adipocytes [5]: significantly increase
- GLUT4 expression levels in the low-density microsome [5]: decrease
